This is an account of results in patent publication US20230128402A1 (The Trustees of Princeton University, priority 2020, published 2023).

The term IC50 denotes the concentration that inhibits the measured activity by half.

The target in one data set is T1, mALDH1a3 (Mus musculus, UniProt Q9JHW9).
T1 construct: made in house; host or cells: E. coli BL21-DE3, pET-Aldh1a3
T1 sequence (Q9JHW9 1-512): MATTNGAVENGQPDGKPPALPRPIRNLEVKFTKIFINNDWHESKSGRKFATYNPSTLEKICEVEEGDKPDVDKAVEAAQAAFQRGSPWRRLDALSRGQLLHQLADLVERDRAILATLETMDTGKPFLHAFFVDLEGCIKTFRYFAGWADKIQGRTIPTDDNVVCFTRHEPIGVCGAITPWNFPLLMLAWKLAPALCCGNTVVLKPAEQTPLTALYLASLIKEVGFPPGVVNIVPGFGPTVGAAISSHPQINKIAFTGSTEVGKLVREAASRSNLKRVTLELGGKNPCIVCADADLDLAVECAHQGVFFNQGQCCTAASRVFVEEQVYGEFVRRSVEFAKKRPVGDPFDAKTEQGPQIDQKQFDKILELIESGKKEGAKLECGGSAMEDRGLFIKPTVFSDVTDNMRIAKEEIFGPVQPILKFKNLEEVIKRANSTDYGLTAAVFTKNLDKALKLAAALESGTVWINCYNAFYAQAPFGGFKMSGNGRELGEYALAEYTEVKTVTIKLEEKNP
Description: Aldh1a3 enzyme inhibition assay, recombinant mALDH1a3. The class given is biochemical. The note with it: resorufin fluorescence, 20° C. An excerpt:
(§1) Recombinant enzyme and inhibitor added immediately before assay. Reaction rate measured by resorufin fluorescence.

Data set [1] relates to ALDH isoforms 1a1, 1a2, 1a3 and 3a1. The class given is cell-based, human. As for the experimental part:
The coding sequences of Aldh1a1, Aldh1a2, Aldh1a3 and Aldh3a1 were cloned from cDNA made from pooled human reference RNA samples. Cloned sequences flanked by Age1 and Xho1 restriction sites were inserted into the pLex lentiviral plasmid. Clones were sequenced and compared against NCBI expressed sequence tags ([…]) for accuracy. […]. Viruses were collected and filtered at 0.45 um, then cells were transduced using polybrene (8 μg/mL) for 12 hours, followed by culture with 1 μg/mL puromycin for the duration of experiments. All viral transduction and selection was performed on a cell population-wide basis.
(§2) Cells were counted, centrifuged and resuspended at 1,000,000 cells/mL in ALDEFLUOR™ buffer (Stemcell Technologies). ALDEFLUOR™ substrate (Stemcell Technologies, 1:200) and test compound or 1 mM DEAB were added to cell suspension and incubated at 37° C. for 45 minutes with vortexing every 15 minutes. Cells were centrifuged and resuspended in ALDEFLUOR™ buffer with DAPI at 5 μg/mL. Samples were analyzed with the BD LSR2 flow cytometry platform. Gating was performed using DEAB as a negative control.
ALDH isoforms 1a1, 1a2, 1a3 and 3a1 were expressed in MCF7 or SUM159 cells, which were subsequently used in an ALDEFLUOR™ assay.

The target in data set [2] is T2, ALDH1a3 (Homo sapiens, UniProt P47895).
T2 sequence (P47895 1-512): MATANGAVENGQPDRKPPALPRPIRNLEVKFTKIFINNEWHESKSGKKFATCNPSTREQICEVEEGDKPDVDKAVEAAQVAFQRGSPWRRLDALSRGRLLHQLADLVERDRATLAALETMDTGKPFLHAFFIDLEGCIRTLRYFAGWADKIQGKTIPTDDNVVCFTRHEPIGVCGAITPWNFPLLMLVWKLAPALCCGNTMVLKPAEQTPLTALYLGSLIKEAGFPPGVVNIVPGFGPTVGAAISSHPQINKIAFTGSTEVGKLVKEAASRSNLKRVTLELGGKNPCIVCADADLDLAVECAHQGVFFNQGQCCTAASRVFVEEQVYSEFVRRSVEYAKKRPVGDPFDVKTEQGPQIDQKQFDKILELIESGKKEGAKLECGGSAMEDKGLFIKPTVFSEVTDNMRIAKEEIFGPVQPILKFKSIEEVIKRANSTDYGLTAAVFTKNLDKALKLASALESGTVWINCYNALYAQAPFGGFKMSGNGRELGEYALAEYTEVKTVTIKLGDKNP
The experiment in a line: ALDEFLUOR assay in SUM159-M1a-Aldh1a3 cells. It counts as cell-based. Details: lentiviral vectors containing either the vector backbone or full-length human Aldh1a3; expressed in transfected cells; host or cells: SUM159-M1a human breast cancer cells, lentiviral pLex vector. The note with it: for Inhi-bitory Activity at 100 nM (%) / Percent of Cells Positive for ALDEFLUOR ™ at 100 nM: SUM159-M1a-Aldh1a3 cells, compound at 100 nM. The method, then:
as §2
Gating for background fluorescence was performed using 1 millimolar DEAB as a negative control.
The [inh-min]threshold was set at the lower bound of two standard deviations of control samples, while the IC50 threshold was set at 50% of the average of control samples.
An ALDEFLUOR™ assay was also used to assess the relative activity of several compounds described herein against SUM159-M1a-Aldh1a3 cells.

For data set [3], the target named is T2, ALDH1a3. Description: Aldh1a3 enzyme inhibition assay, recombinant hALDH1a3. The class given is biochemical. Details: made in house; host or cells: E. coli BL21-DE3, pET-Aldh1a3. The note with it: resorufin fluorescence, 20° C.
Description: as §1

Consider “2-ethyl-N-(7-fluoro-2-oxo-3,4-dihydro-1H-quinolin-6-yl)benzamide [Compound 4]”, for which the IC50 at mALDH1a3 lay in the range of 0.1 to 0.25 µM. Also, in data set [1], the “ALDH isoform specificity, ALDEFLUOR-positive cells” value was “specifically inhibits ALDH1a3 at concentrations below 10 μM”. At ALDH1a3 [2], the “Inhi-bitory Activity at 100 nM (%)” value was determined as 100% and the “Percent of Cells Positive for ALDEFLUOR ™ at 100 nM” value (“Percent of Cells Positive” below) is 0.03%. Besides, at ALDH1a3 [3], the IC50 was less than 0.1 µM.

Turning to “3-ethyl-N-(2-oxo-3,4-dihydro-1H-quinolin-6-yl)pyridine-4-carboxamide [Compound 9]”, the IC50 on mALDH1a3 is 0.25 to 1 µM. On ALDH1a3 [2], the “Inhi-bitory Activity at 100 nM (%)” value was determined as 83% and the “Percent of Cells Positive” value was 13%. Moreover, at ALDH1a3 [3], the IC50 is less than 0.1 µM.

In the case of `O=C1CCc2cc(NC(=O)c3ccncc3)c(F)cc2N1` [Compound 2], the IC50 at mALDH1a3 is more than 5 µM. Besides, at ALDH1a3 [2], the “Inhi-bitory Activity at 100 nM (%)” value turned out to be 8% and the “Percent of Cells Positive” value stood at 70%. Besides, the IC50 at ALDH1a3 [3] is more than 5 µM.

In the case of `CCc1cnccc1CNc1cc2c(cc1F)NC(=O)CC2` [Compound 3], the IC50 at mALDH1a3 lay within 1 to 5 µM. Besides, at ALDH1a3 [2], the “Inhi-bitory Activity at 100 nM (%)” value stood at 55% and the “Percent of Cells Positive” value was 34%. Further, the IC50 at ALDH1a3 [3] lay in the range of 1 to 5 µM.

Turning to `CC(C)Cc1cnccc1C(=O)Nc1cc2c(cc1F)NC(=O)CC2` [Compound 7], the values for the IC50 on mALDH1a3 and at ALDH1a3 [3] were 0.1 to 0.25 µM and less than 0.1 µM, respectively. Also, the “relative potency, ALDEFLUOR activity” value at ALDH1a3 [2] (10 nM, FIG. 6C) is recorded as “nearly twice as potent as MBE 1.5”.

Regarding `CCc1cnccc1C(=O)Nc1ccc2c(c1)CCC(=O)N2` [Compound 9, 3-ethyl-N-(2-oxo-3,4-dihydro-1H-quinolin-6-yl)pyridine-4-carboxamide], the “inhibition of ALDH1a3 activity (percentage of ALDEFLUOR-positive cells)” value at ALDH1a3 [2] (100 nM, FIG. 6A) was “high-affinity compounds for the inhibition of ALDH1a3 activity”.

For `Cc1ccc(C)c(CNc2ccc3c(c2)CCC(=O)N3)c1` [Compound 10], the IC50 at mALDH1a3 lay in the range of 1 to 5 µM. Besides, at ALDH1a3 [2], the “Inhi-bitory Activity at 100 nM (%)” value amounted to 45% and the “Percent of Cells Positive” value turned out to be 42%. The IC50 at ALDH1a3 [3] was in the range of 1 to 5 µM.

For `Cc1ccc(C(=O)Nc2ccc3c(c2)CCC(=O)N3)cc1C` [Compound 11], at mALDH1a3, the 50% inhibitory concentration (IC50) is more than 5 µM. Besides, at ALDH1a3 [2], the “Inhi-bitory Activity at 100 nM (%)” value was 0.60% and the “Percent of Cells Positive” value was 76%. Further, at ALDH1a3 [3], the IC50 was more than 5 µM.

For the compound `Cc1ccc(C(=O)Nc2ccc3c(c2)CCC(=O)N3)c(C)c1` [Compound 12], on mALDH1a3, the IC50 is more than 5 µM. In addition, on ALDH1a3 [2], the “Inhi-bitory Activity at 100 nM (%)” value came to 3.3% and the “Percent of Cells Positive” value was 74%. Further, on ALDH1a3 [3], the IC50 is more than 5 µM.

On to `Cc1ccccc1C(=O)Nc1ccc2c(c1)CCC(=O)N2` [Compound 13], for which the IC50 on mALDH1a3 is 1 to 5 µM. Also, at ALDH1a3 [2], the “Inhi-bitory Activity at 100 nM (%)” value is given as 42% and the “Percent of Cells Positive” value was determined as 45%. For the same compound, the IC50 on ALDH1a3 [3] was more than 5 µM.

With `O=C1CCc2cc(NCc3ccccc3)ccc2N1` [Compound 14], the IC50 at mALDH1a3 was more than 5 µM. Further, on ALDH1a3 [2], the “Inhi-bitory Activity at 100 nM (%)” value was determined as 11% and the “Percent of Cells Positive” value came to 68%. For the same compound, the IC50 at ALDH1a3 [3] is more than 5 µM.

Regarding `Cc1cnccc1C(=O)Nc1cc2c(cc1F)NC(=O)CC2` [Compound 15], the IC50 at mALDH1a3 and at ALDH1a3 [3] was more than 5 µM each time. For the same compound, the “Inhi-bitory Activity at 100 nM (%)” value on ALDH1a3 [2] is 18%. Moreover, at ALDH1a3 [2], the “Percent of Cells Positive” value came to 63%.

With `Cc1cc(C(=O)Nc2cc3c(cc2F)NC(=O)CC3)ccn1` [Compound 16], the IC50 at mALDH1a3 was more than 5 µM. Moreover, on ALDH1a3 [2], the “Inhi-bitory Activity at 100 nM (%)” value was determined as 29% and the “Percent of Cells Positive” value is recorded as 55%. In addition, the IC50 at ALDH1a3 [3] was more than 5 µM.

As to `O=C1CCc2cc(NCc3cc[nH]c3)c(F)cc2N1` [Compound 17], the IC50 on mALDH1a3 was more than 5 µM. Further, at ALDH1a3 [2], the “Inhi-bitory Activity at 100 nM (%)” value is reported as 2% and the “Percent of Cells Positive” value is 75%. Moreover, at ALDH1a3 [3], the IC50 is more than 5 µM.

With `CC1(C)Cc2cc(Nc3c[nH]c4c(c3=O)CCCC4)ccc2NC1=O` [Compound 135, 3,3-dimethyl-6-[(4-oxo-5,6,7,8-tetrahydro-1H-quinolin-3-yl)amino]-1,4-dihydroquinolin-2-one], the IC50 at mALDH1a3 and on ALDH1a3 [3] was more than 5 µM in each case.

As to `CCc1cnccc1C(=O)Nc1ccc2c(c1)C(F)(F)C(=O)N2` [Compound 136], the figures for the IC50 on mALDH1a3 and at ALDH1a3 [3] were more than 5 µM and 1 to 5 µM, respectively.

`CCc1cnccc1C(=O)Nc1ccc2c(c1)C(C)(C)C(=O)N2` [Compound 137]: the IC50 on mALDH1a3 and at ALDH1a3 [3] was more than 5 µM in each case.
